Source: patent US20240416143A1, “PHOTONIC ANTIMICROBIAL WOUND SURFACE DRESSING” (The General Hospital Corporation, priority 2021, published 2024)
Like-named read-outs stand apart in the source and are kept apart here.

How the values were obtained:
MRSA [1] = assay: MIC of menadione by broth microdilution, with or without aBL; type: cell-based, methicillin-resistant Staphylococcus aureus; details: for MIC: Staphylococcus aureus, MRSA, light or radiation study
Description: (§1) The MICs of menadione in different bacterial strains were determined by a standard broth microdilution assay according to the Clinical and Laboratory Standards Institute. Briefly, menadione was prepared at 100 mg/mL in Tween 80/DMSO (1:1) as a stock solution. The stock solution was diluted to 2048 μg/mL in BHI and then serial dilutions were performed to 1024-0.015 μg/mL in a 96-well plate. Then, a 10 μL stationary growth-phase culture of 10^8 CFU/mL bacteria in BHI broth was added to the 96-well plate containing the serial dilutions of menadione. The medium containing a similar amount of Tween 80/DMSO (1:1) served as a control. The microplates were incubated at 37° C. for 24 hours and the lowest concentration of the compound capable of completely inhibiting bacterial growth was referred to as the MIC.
(§2) However, we investigated the effects of aBL (50 mW/cm^2) in potentiating the antibacterial activities of menadione in the three strains of bacteria. […] The highest fluence that we investigated was 125 J/cm^2, when we irradiated the bacteria for 42 minutes.

MRSA [2] = assay: Singlet oxygen assay (SOSG) in bacteria; type: cell-based, methicillin-resistant Staphylococcus aureus; details: 10 μg/mL menadione, 200 J/cm^2
Description: 1.2.9.2 Singlet oxygen ^1O2 assay: The singlet oxygen was measured by Singlet Oxygen Sensor Green Reagent (SOSG) (Thermofisher). In the presence of singlet oxygen, SOSG emits a green fluorescence similar to that of fluorescein (excitation/emission maxima ˜504/525 nm). The MRSA were grown in BHI broth medium with shaking overnight. Cells were collected by centrifugation at 4,000 rpm for 5 minutes and resuspended in PBS in the stationary growth phase culture of 1×10^8 CFU/mL. The microbial suspension was transferred to a 35×12-mm dish, mixed with 10 μg/mL of menadione, and stained with 10 μM SOSG solution per the manufacturer's instruction. The bacteria were irradiated with the blue light at 50 mW/cm^2 and the samples were collected each 15 minutes to be analyzed by Microplate Spectrofluorometer (SPECTRAmax®, Molecular Devices, USA) at λex=504 nm and λem=525 nm. The control and the menadione/dark groups were generated under the same conditions without irradiation.

E. coli biofilm = assay: Photoinactivation of 48-hour in vitro biofilms by adjuvant/antibiotic + antimicrobial blue light; type: cell-based, Escherichia coli
Description: The bacterial suspension was grown in a shaking incubator overnight in BHI broth. Cells were collected by centrifugation at 4,000 rpm for 5 minutes and suspended in PBS at a density of 10^6 CFU/mL. Then, the biofilms were grown for 48 hours (unless otherwise specified) in 96-well microtiter plates as described previously [Ref. 27], with a renewal of the media every 24 hours. Following the 48-hour biofilm growth, fresh 200 μL of PBS with or without menadione in different concentrations were added to the wells and the biofilms were incubated in the dark at 25° C. for 1 hour: 0, 0.5, 1, and 2 μg/mL for MRSA USA300, AF0001, IQ0064; 0, 1, 10, 30 and 50 μg/mL for P. aeruginosa PA01; and 0, 100, and 150 μg/mL for E. coli ATCC 25922. After that, the control and the menadione-treated biofilms were maintained without irradiation (“menadione/dark”). Simultaneously, the aBL was delivered to the other biofilm groups testing different power densities (50, 30, 15, and 10 mW/cm^2) while keeping the same radiant exposure of 250 J/cm^2. After the light exposure, the biofilms were carefully washed two times with PBS and 200 μL of PBS was added to each well. Then, the bacterial biofilms in each well were harvested by scratching with a sterile pipette tip and three wells of each group were pooled together in a 1.5 mL microcentrifuge tube. The total volume obtained, 600 μL (3 wells), was sonicated using a Branson 2510 Water Bath Sonicator (Marshall Scientific, LLC) for 5 minutes and the CFU was determined by 10-fold serial dilutions in PBS on BHI agar plates. CFU was counted after overnight incubation at 37° C. Experiments were performed in triplicate.
A bacterial suspension was grown in a shaking incubator overnight in BHI broth. Cells were collected by centrifugation at 4,000 rpm for 5 minutes and suspended in PBS at a density of 10^6 CFU/mL. Then, the biofilms were grown for 48 hours in 96-well microtiter plates with a renewal of the media every 24 hours. Following the 48-hour biofilm growth, fresh 200 μL of PBS with the tetracyclines minocycline, doxycycline, and demeclocycline in different concentrations were added to the wells and the biofilms were incubated in the dark at 25° C. for 1 hour: 0, 0.25, 0.5, and 1 μg/mL for minocycline; 0, 0.5, 1, and 2 μg/mL for doxycycline; and 0, 0.5, 1, and 2 for demeclocycline. After that, the control and the tetracycline-treated biofilms were maintained without irradiation (“menadione/dark”). […] The total volume obtained, 600 μL (3 wells), was sonicated using a Branson 2510 Water Bath Sonicator (Marshall Scientific, LLC) for 5 minutes and the CFU/mL was determined by 10-fold serial dilutions in PBS on BHI agar plates. CFU was counted after overnight incubation at 37° C.

E. coli = assay: MIC of menadione by broth microdilution, with or without aBL; type: cell-based, Escherichia coli ATCC 25922
Description: as §1, §2

Question: Which MIC (MRSA [1]; 5 min, aBL 15.62 J/cm^2 (5 mins.), 50 mW/cm^2) does the source give for `CC1=CC(=O)c2ccccc2C1=O` [menadione, 2-methyl-1,4-naphthoquinone] here?
Answer: Its MIC is 8 µg/mL.

Question: And the MIC (MRSA [1]; 0.175 h, aBL 31.25 J/cm^2 (10.5 mins.), 50 mW/cm^2)?
Answer: Its MIC is 4 µg/mL.

Question: And the MIC (MRSA [1]; 0.35 h, aBL 62.5 J/cm^2 (21 mins.), 50 mW/cm^2)?
Answer: Its MIC is 1 µg/mL.

Question: And the MIC (MRSA [1]; 0.7 h, aBL 125 J/cm^2 (42 mins.), 50 mW/cm^2)?
Answer: Its MIC is 0.0625 µg/mL.

Question: And the MIC (MRSA [1]; 0 J/cm^2 (Dark))?
Answer: Its MIC is 8 µg/mL.

Question: What about the “lowering of MIC by aBL” value (MRSA [1]; aBL 125 J/cm^2 vs dark) of the same molecule?
Answer: Its value is 78%.

Question: What about the “singlet oxygen (SOSG), menadione+aBL vs aBL alone” value (MRSA [2]) of the same molecule?
Answer: Its value is 1.5 times.

Question: And the “biofilm reduction by menadione without irradiation” value (E. coli biofilm; 48 h biofilm, dark)?
Answer: Its value is under 1 log killing.

Question: What about the “biofilm eradicated by menadione plus aBL” value (E. coli biofilm; 48 h biofilm, 100 μg/mL menadione + aBL 250 J/cm^2 (50 mW/cm^2)) of the same molecule?
Answer: Its value is 4.8 log10 CFU/mL.

Question: What about the “enhancement of killing in comparison with aBL alone” value (E. coli biofilm; 48 h in vitro biofilm, menadione + aBL) of the same molecule?
Answer: The value was 1 log-fold.

Question: And the MIC (E. coli; Escherichia coli, light or radiation study, 5 min, aBL 15.62 J/cm^2 (5 mins.), 50 mW/cm^2, read-out: MIC)?
Answer: The MIC was 256 µg/mL.

Question: And the MIC (E. coli; Escherichia coli, light or radiation study, 0.175 h, aBL 31.25 J/cm^2 (10.5 mins.), 50 mW/cm^2, read-out: MIC)?
Answer: Its MIC is 256 µg/mL.

Question: What about the MIC (E. coli; Escherichia coli, light or radiation study, 0.35 h, aBL 62.5 J/cm^2 (21 mins.), 50 mW/cm^2, read-out: MIC) of the same molecule?
Answer: The MIC was 4 µg/mL.

Question: And the MIC (E. coli; Escherichia coli, light or radiation study, 0 J/cm^2 (Dark), read-out: MIC)?
Answer: The MIC was 512 µg/mL.

Question: And the MIC (E. coli; aBL 125 J/cm^2 (42 mins.), 50 mW/cm^2)?
Answer: Its MIC is “completely eradicated”.
